Measured values as given in PMC4014121, “Structure of sulfamidase provides insight into the molecular pathology of mucopolysaccharidosis IIIA” (Acta Crystallographica Section D: Biological Crystallography, 2014).
pIC50: −log10 of the molar value.

Target: T1, SGSH (sulfamidase; N-sulfoglucosamine sulfohydrolase) (Homo sapiens, UniProt P51688)
T1 construct: full-length cDNA with C-terminal RSHHHHHH (residues 503-510), tag kept; secreted from HEK 293 cells, HisTrap purified; signal peptide removed (modelled from residue 21/22); glycosylated; Cys70 converted to formylglycine; homodimer, 55 kDa unglycosylated subunit
T1 sequence (P51688 21-502): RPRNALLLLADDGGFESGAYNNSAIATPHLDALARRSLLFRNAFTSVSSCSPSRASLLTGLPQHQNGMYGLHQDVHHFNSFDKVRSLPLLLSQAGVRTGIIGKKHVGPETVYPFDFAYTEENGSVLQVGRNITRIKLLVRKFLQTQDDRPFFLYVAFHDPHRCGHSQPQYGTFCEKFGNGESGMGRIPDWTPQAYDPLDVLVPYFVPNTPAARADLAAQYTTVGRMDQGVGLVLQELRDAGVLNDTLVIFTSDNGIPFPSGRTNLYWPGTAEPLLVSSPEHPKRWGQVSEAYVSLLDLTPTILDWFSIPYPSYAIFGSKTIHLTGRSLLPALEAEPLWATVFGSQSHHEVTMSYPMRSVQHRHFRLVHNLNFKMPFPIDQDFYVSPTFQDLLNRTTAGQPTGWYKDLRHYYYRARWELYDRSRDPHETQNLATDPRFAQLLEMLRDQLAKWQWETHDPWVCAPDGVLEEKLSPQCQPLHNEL
Experiment: two-step fluorometric assay with MU-alphaGlcNS, alpha-glucosidase coupled
Assay type: biochemical

Row | SMILES | pIC50
1 | O=P(O)(O)O [phosphate] | 3.00
2 | O=S(=O)(O)O [sulfate] | 2.30
